# According to ChEMBL document CHEMBL5247590, “Novel nitrogen mustard-artemisinin hybrids with potent anti-leukemia action through DNA damage and activation of GPx” (Eur J Med Chem, 2022):
# pIC50: −log10 of the molar value. Activity calls are given as the source filed them. No cut-off for these calls is given here.
# Tests used:
# [1] = tested on: CCRF-CEM; experiment: Induction of cell cycle arrest in human CCRF-CEM cells assessed as cell accumulation at G1 phase at 2 uM incubated for 24 hrs by PI staining based flow cytometry analysis (reference value: 24.1 %); type: functional
# [2] = tested on: CCRF-CEM; experiment: Induction of apoptosis in human CCRF-CEM cells assessed as late apoptotic cells at 4 uM incubated for 48 hrs by Annexin V-FITC/PI staining based flow cytometry (reference value: 3.2 %); type: functional
# [3] = tested on: A549; experiment: Antiproliferative activity against human A549 cells assessed as cell growth inhibition incubated for 72 hrs by MTT assay; type: functional, cell-based; conditions: A549, 72 h
# [4] = tested on: CCRF-CEM; experiment: Induction of cell cycle arrest in human CCRF-CEM cells assessed as cell accumulation at G2/M phase at 2 uM incubated for 24 hrs by PI staining based flow cytometry analysis (reference value: 61.3 %); type: functional
# [5] = tested on: CCRF-CEM; experiment: Induction of apoptosis in human CCRF-CEM cells assessed as viable cells at 1 uM incubated for 48 hrs by Annexin V-FITC/PI staining based flow cytometry (reference value: 83.4 %); type: functional; conditions: read-out: Activity
# [6] = tested on: CCRF-CEM; experiment: Induction of apoptosis in human CCRF-CEM cells assessed downregulation of Bcl-2 expression at 0.25 to 0.5 uM incubated for 48 hrs by Western blot analysis; type: functional, cell-based; conditions: dose 0.25-0.5 µM
# [7] = tested on: CCRF-CEM; experiment: Induction of apoptosis in human CCRF-CEM cells assessed as nuclear condensation upto 4 uM incubated for 48 hrs by Hoechst staining based fluorescent microscopic analysis; type: functional, cell-based
# [8] = tested on: CCRF-CEM; experiment: Induction of apoptosis in human CCRF-CEM cells assessed as early apoptotic cells at 1 uM incubated for 48 hrs by Annexin V-FITC/PI staining based flow cytometry (reference value: 13.4 %); type: functional
# [9] = tested on: K562; experiment: Antiproliferative activity against human K562 cells assessed as cell growth inhibition incubated for 72 hrs by MTT assay; type: functional, cell-based; conditions: K562, 72 h
# [10] = tested on: CCRF-CEM; experiment: Induction of cell cycle arrest in human CCRF-CEM cells assessed as cell accumulation at G1 phase at 0.5 uM incubated for 24 hrs by PI staining based flow cytometry analysis (reference value: 24.1 %); type: functional
# [11] = tested on: CCRF-CEM; experiment: Induction of apoptosis in human CCRF-CEM cells assessed as necrotic cells at 1 uM incubated for 48 hrs by Annexin V-FITC/PI staining based flow cytometry (reference value: 0.0 %); type: functional
# [12] = tested on: CCRF-CEM; experiment: Induction of apoptosis in human CCRF-CEM cells incubated for 48 hrs by Hoechst staining based fluorescent microscopy; type: functional, cell-based; conditions: dose 1-4 µM
# [13] = tested on: CCRF-CEM; experiment: Induction of apoptosis in human CCRF-CEM cells assessed as necrotic cells at 0.5 uM incubated for 48 hrs by Annexin V-FITC/PI staining based flow cytometry (reference value: 0.0 %); type: functional
# [14] = tested on: CCRF-CEM; experiment: Downregulation of ROS level in human CCRF-CEM cells assessed as CAT level at 1 uM incubated for 12 hrs in presence of NADPH by absorbance based assay; type: functional, cell-based
# [15] = tested on: U-118-MG; experiment: Antiproliferative activity against human U-118-MG cells assessed as cell growth inhibition incubated for 72 hrs by MTT assay; type: functional, cell-based
# [16] = tested on: CCRF-CEM; experiment: Induction of cell cycle arrest in human CCRF-CEM cells assessed as cell accumulation at G2/M phase at 1 uM incubated for 24 hrs by PI staining based flow cytometry analysis (reference value: 61.3 %); type: functional
# [17] = tested on: CCRF-CEM; experiment: Antiproliferative activity against human CCRF-CEM cells assessed as cell growth inhibition incubated for 24 to 72 hrs by CCK8 assay; type: functional, cell-based; conditions: dose 0.1875-20 µM, time 24-72 hrs
# [18] = tested on: CCRF-CEM; experiment: Antiproliferative activity against human CCRF-CEM cells assessed as cell growth inhibition incubated for 72 hrs by MTT assay; type: functional, cell-based
# [19] = Selectivity index, ratio of IC50 for human L02 cells to IC50 for human CCRF-CEM cells; type: toxicity; conditions: L02 cells and CCRF-CEM cells, read-out: Selectivity Index
# [20] = tested on: CCRF-CEM; experiment: Induction of apoptosis in human CCRF-CEM cells assessed as late apoptotic cells at 0.5 uM incubated for 48 hrs by Annexin V-FITC/PI staining based flow cytometry (reference value: 3.2 %); type: functional
# [21] = tested on: CCRF-CEM; experiment: Induction of apoptosis in human CCRF-CEM cells assessed as nuclear collapse upto 4 uM incubated for 48 hrs by Hoechst staining based fluorescent microscopic analysis; type: functional, cell-based
# [22] = tested on: CCRF-CEM; experiment: Induction of apoptosis in human CCRF-CEM cells assessed as necrotic cells at 2 uM incubated for 48 hrs by Annexin V-FITC/PI staining based flow cytometry (reference value: 0.0 %); type: functional
# [23] = tested on: CCRF-CEM; experiment: Induction of cell cycle arrest in human CCRF-CEM cells assessed as cell accumulation at S phase at 0.5 uM incubated for 24 hrs by PI staining based flow cytometry analysis (reference value: 15.5 %); type: functional
# [24] = tested on: CCRF-CEM; experiment: Induction of DNA damage in human CCRF-CEM cells assessed as increase in gammaH2AX phosphorylation at 1 to 4 uM incubated for 24 hrs by DAPI staining based immunofluorescence microscopic analysis; type: functional, cell-based; conditions: dose 1-4 µM
# [25] = tested on: CCRF-CEM; experiment: Induction of apoptosis in human CCRF-CEM cells assessed as early apoptotic cells at 0.25 uM incubated for 48 hrs by Annexin V-FITC/PI staining based flow cytometry (reference value: 13.4 %); type: functional
# [26] = tested on: CCRF-CEM; experiment: Induction of apoptosis in human CCRF-CEM cells assessed effect on cleaved caspase-3 expression at 0.25 to 0.5 uM incubated for 48 hrs by Western blot analysis; type: functional, cell-based; conditions: dose 0.25-0.5 µM
# [27] = tested on: CCRF-CEM; experiment: Induction of apoptosis in human CCRF-CEM cells assessed as late apoptotic cells at 1 uM incubated for 48 hrs by Annexin V-FITC/PI staining based flow cytometry (reference value: 3.2 %); type: functional
# [28] = tested on: CCRF-CEM; experiment: Induction of apoptosis in human CCRF-CEM cells assessed as late apoptotic cells at 2 uM incubated for 48 hrs by Annexin V-FITC/PI staining based flow cytometry (reference value: 3.2 %); type: functional
# [29] = Antiproliferative activity against human L02 cells assessed as cell growth inhibition incubated for 72 hrs by MTT assay; type: toxicity, cell-based
# [30] = Selectivity index, ratio of IC50 for human K562 cells to IC50 for human CCRF-CEM cells
# [31] = Selectivity index, ratio of IC50 for human HL-60 cells to IC50 for human CCRF-CEM cells
# [32] = tested on: CCRF-CEM; experiment: Induction of apoptosis in human CCRF-CEM cells assessed as necrotic cells at 0.25 uM incubated for 48 hrs by Annexin V-FITC/PI staining based flow cytometry (reference value: 0.0 %); type: functional
# [33] = tested on: CCRF-CEM; experiment: Induction of apoptosis in human CCRF-CEM cells assessed as viable cells at 2 uM incubated for 48 hrs by Annexin V-FITC/PI staining based flow cytometry (reference value: 83.4 %); type: functional; conditions: read-out: Activity
# [34] = tested on: CCRF-CEM; experiment: Induction of cell cycle arrest in human CCRF-CEM cells assessed as cell accumulation at S phase at 1 uM incubated for 24 hrs by PI staining based flow cytometry analysis (reference value: 15.5 %); type: functional
# [35] = tested on: CCRF-CEM; experiment: Induction of apoptosis in human CCRF-CEM cells assessed as necrotic cells at 4 uM incubated for 48 hrs by Annexin V-FITC/PI staining based flow cytometry (reference value: 0.0 %); type: functional
# [36] = tested on: HL-60; experiment: Antiproliferative activity against human HL-60 cells assessed as cell growth inhibition incubated for 72 hrs by MTT assay; type: functional, cell-based; conditions: HL-60, 72 h
compound,measurement,setting,value
C[C@@H]1CC[C@H]2[C@@H](C)C(OC(=O)c3ccc(N(CCCl)CCCl)cc3)O[C@@H]3O[C@@]4(C)CC[C@@H]1[C@]32OO4 (stereo partly specified),Activity,[1],26.9%
same,Activity,[2],14.8%
same,pIC50,[3],5.54
same,Activity,[4],67.1%
same,viability at 1 µM,[5],60.4%
same,Activity,[6],Active
same,Activity,[7],Active
same,Activity,[8],26.7%
same,pIC50,[9],4.66
same,Activity,[10],22.8%
same,Activity,[11],0.1%
same,Activity,[12],Dose-Dependent Effect
same,Activity,[13],0.1%
same,Activity,[14],inactive
same,pIC50,[15],< 4.40
same,Activity,[16],47.6%
same,Activity,[17],Dose-Dependent Effect
same,pIC50,[18],6.05
same,selectivity ratio,[19],44.7
same,Activity,[20],6.9%
same,Activity,[21],Active
same,Activity,[22],0.1%
same,Activity,[23],6.8%
same,Activity,[24],Active
same,Activity,[25],20.5%
same,AC30,[26],inactive
same,Activity,[27],12.8%
same,Activity,[28],12.8%
same,IC50 at 72 h,[29],> 40000 nM
same,Selectivity Index,[30],1.82
same,Selectivity Index,[31],17.2
same,Activity,[32],0.1%
same,viability at 2 µM,[33],53.8%
same,Activity,[34],35.1%
same,Activity,[35],0.1%
same,pIC50,[36],5.63
